Measurements published in article PMC10901292 (European journal of medicinal chemistry, 2024).
One block for each compound: values may come before it.

Legend:
EZH2 [1] = target: T1, EZH2 (Homo sapiens, UniProt Q15910); assay: Western blot of EZH2 protein level in EOL-1 cells; assay type: cell-based; conditions: for EZH2 degradation (EZH2 protein level): 24 h treatment
Target sequence in this assay (Q15910 whole entry): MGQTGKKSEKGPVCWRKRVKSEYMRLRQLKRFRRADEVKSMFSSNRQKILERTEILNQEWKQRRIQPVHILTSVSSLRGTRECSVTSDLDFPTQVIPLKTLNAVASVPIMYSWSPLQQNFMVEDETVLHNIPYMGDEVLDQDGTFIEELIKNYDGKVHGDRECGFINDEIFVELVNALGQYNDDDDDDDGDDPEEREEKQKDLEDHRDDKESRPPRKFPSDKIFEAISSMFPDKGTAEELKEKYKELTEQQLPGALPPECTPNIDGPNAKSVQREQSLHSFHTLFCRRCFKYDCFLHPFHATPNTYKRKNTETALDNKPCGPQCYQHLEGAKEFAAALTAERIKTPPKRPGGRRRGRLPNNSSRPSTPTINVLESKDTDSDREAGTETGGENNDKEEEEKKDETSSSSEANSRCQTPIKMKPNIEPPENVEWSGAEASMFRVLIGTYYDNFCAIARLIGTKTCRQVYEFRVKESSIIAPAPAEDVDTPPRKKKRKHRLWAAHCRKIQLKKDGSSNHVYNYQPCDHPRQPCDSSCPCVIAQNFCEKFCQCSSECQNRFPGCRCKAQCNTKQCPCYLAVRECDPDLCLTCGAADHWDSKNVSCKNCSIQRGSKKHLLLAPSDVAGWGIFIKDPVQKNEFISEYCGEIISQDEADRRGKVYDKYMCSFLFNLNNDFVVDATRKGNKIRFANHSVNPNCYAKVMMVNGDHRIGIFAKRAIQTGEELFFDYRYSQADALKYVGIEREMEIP
Target sequence in this assay (O75530 2-441 partner limits assumed): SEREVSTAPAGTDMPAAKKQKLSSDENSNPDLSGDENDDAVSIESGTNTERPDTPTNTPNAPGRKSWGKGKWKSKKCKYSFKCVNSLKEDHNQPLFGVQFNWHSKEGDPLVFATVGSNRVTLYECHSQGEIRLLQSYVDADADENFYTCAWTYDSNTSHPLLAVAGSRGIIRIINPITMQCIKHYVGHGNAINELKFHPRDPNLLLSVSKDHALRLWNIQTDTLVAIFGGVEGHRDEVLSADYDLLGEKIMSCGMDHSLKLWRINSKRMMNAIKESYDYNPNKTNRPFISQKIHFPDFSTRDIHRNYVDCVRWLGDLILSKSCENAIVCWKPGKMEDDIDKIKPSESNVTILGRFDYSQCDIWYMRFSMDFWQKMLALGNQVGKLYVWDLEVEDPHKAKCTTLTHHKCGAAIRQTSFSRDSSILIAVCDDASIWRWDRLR
Target sequence in this assay (Q15022 whole entry partner): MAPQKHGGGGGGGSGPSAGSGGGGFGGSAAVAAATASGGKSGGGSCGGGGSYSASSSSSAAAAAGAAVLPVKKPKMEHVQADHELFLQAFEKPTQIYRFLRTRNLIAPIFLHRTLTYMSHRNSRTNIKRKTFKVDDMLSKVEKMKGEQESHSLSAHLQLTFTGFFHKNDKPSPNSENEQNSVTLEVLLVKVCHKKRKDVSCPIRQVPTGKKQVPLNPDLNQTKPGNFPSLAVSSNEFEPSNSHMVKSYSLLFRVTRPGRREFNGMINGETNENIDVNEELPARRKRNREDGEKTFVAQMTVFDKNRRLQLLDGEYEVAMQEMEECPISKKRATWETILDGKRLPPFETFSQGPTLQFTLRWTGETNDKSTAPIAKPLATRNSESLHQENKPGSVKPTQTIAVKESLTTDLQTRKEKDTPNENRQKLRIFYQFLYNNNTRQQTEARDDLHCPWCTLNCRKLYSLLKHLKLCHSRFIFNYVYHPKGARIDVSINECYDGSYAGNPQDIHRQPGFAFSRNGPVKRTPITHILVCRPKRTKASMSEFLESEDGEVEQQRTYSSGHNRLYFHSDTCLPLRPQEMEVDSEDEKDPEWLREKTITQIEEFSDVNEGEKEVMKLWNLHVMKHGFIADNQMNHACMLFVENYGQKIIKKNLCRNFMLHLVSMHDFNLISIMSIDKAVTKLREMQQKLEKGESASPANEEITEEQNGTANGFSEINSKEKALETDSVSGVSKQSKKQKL

MDA-MB-468 cells = assay: Cell viability WST-8; assay type: cell-based
BT549 cells = assay: Cell viability WST-8; assay type: cell-based
K562 cells = assay: Cell viability assay, K562; assay type: cell-based; conditions: K562 cells (insensitive to EZH2 KO), Fig. S4
EZH1 [2] = target: T2, EZH1 (Homo sapiens, UniProt Q92800); assay: Western blot of EZH1 degradation; assay type: cell-based; conditions: Fig. S3
Target sequence in this assay (Q92800 whole entry): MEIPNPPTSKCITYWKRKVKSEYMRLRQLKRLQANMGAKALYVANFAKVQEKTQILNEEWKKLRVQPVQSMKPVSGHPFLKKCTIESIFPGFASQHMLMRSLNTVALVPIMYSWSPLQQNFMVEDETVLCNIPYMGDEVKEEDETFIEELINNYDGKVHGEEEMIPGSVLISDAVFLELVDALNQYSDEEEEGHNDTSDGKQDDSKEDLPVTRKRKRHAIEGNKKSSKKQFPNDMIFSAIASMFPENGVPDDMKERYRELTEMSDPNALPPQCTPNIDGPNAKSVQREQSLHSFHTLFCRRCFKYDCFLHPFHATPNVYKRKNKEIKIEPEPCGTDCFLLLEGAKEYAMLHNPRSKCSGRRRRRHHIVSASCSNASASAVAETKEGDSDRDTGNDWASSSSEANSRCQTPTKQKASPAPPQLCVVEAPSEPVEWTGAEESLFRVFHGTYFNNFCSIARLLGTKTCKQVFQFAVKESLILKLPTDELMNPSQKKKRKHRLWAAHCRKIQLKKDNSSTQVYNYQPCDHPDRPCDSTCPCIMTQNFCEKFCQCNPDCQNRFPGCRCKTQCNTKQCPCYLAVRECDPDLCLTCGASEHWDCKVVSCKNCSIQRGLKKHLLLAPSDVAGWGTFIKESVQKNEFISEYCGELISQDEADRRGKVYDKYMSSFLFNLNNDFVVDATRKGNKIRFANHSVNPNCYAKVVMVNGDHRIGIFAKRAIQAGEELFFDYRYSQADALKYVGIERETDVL
Target sequence in this assay (O75530 2-441 partner limits assumed): as the sequence (O75530 2-441 partner limits assumed) above
Target sequence in this assay (Q15022 whole entry partner): as the sequence (Q15022 whole entry partner) above

[3] = Tolerability observed in the mouse PK study; conditions: mice, single IP injection 50 mg/kg
MV4; 11 cells = assay: Cell viability WST-8; assay type: cell-based
EED = assay: Western blot of EED in EOL-1 cells; assay type: cell-based; conditions: 24 h treatment (Fig. 4B)
EZH2 [4] = target: T1, EZH2; assay: Western blot of EZH2 protein level in MDA-MB-468 cells; assay type: cell-based; conditions: 48 h treatment
Target sequence in this assay (Q15910 whole entry): as the sequence (Q15910 whole entry) above
Target sequence in this assay (O75530 2-441 partner limits assumed): as the sequence (O75530 2-441 partner limits assumed) above
Target sequence in this assay (Q15022 whole entry partner): as the sequence (Q15022 whole entry partner) above

BT549 in vitro spheroids = assay: Bio-Assembler 3D in vitro spheroid TNBC model; assay type: cell-based; conditions: 5 d treatment
EZH2 [5] = target: T1, EZH2; assay: Western blot of EZH2 protein level in BT549 cells; assay type: cell-based; conditions: 48 h treatment
Target sequence in this assay (Q15910 whole entry): as the sequence (Q15910 whole entry) above
Target sequence in this assay (O75530 2-441 partner limits assumed): as the sequence (O75530 2-441 partner limits assumed) above
Target sequence in this assay (Q15022 whole entry partner): as the sequence (Q15022 whole entry partner) above

EZH2 [6] = target: T1, EZH2; assay: EZH2 methyltransferase inhibition assay; assay type: biochemical; conditions: Fig. S2A
[7] = system: panel of 20 protein methyltransferases; assay: Radioactive methyltransferase selectivity panel; assay type: biochemical; conditions: 10 μM, two replicates
EZH2 [8] = target: T1, EZH2; assay: Western blot of EZH2 protein level in MV4; assay type: cell-based; conditions: 11 cells, 24 h treatment, all tested concentrations (Fig. 8A, 8C)
Target sequence in this assay (Q15910 whole entry): as the sequence (Q15910 whole entry) above
Target sequence in this assay (O75530 2-441 partner limits assumed): as the sequence (O75530 2-441 partner limits assumed) above
Target sequence in this assay (Q15022 whole entry partner): as the sequence (Q15022 whole entry partner) above

EZH2 [9] = target: T1, EZH2; assay: Western blot of EZH2 protein level in RS4; assay type: cell-based; conditions: 11 cells, 24 h treatment, 0.1 and 0.3 μM
Target sequence in this assay (Q15910 whole entry): as the sequence (Q15910 whole entry) above
Target sequence in this assay (O75530 2-441 partner limits assumed): as the sequence (O75530 2-441 partner limits assumed) above
Target sequence in this assay (Q15022 whole entry partner): as the sequence (Q15022 whole entry partner) above

H3K27me3 = assay: Western blot of H3K27me3 mark in EOL-1 cells; assay type: cell-based; conditions: 24 h treatment (Fig. 4A)
[10] = Mouse pharmacokinetic study
EZH1 [11] = target: T2, EZH1; assay: EZH1 methyltransferase inhibition assay; assay type: biochemical; conditions: Fig. S2B
EOL-1 cells = assay: Cell viability WST-8; assay type: cell-based

- EZH2 degradation (EZH2 protein level) (EZH2 [1]; SAR study (Fig. 3)): partial degradation
Compound: CCN(c1cc(-c2ccc(CN3CCN(CCC(=O)NCCCCCCCC(=O)N[C@H](C(=O)N4C[C@H](O)C[C@H]4C(=O)NCc4ccc(-c5scnc5C)cc4)C(C)(C)C)CC3)cc2)cc(C(=O)NCc2c(C)cc(C)[nH]c2=O)c1C)C1CCOCC1 [Compound 5, (2S,4R)-1-((S)-2-(8-(3-(4-((3’-(((4,6-dimethyl-2-oxo-1,2-dihydropyridin-3-yl)methyl)carbamoyl)-5’-(ethyl(tetrahydro-2H-pyran-4-yl)amino)-4′-methyl-[1,1′-biphenyl]-4-yl)methyl)piperazin-1-yl)propanamido)octanamido)-3,3-dimethylbutanoyl)-4-hydroxy-N-(4-(4-methylthiazol-5-yl)benzyl)pyrrolidine-2-carboxamide]

- EZH2 degradation (EZH2 protein level) (EZH2 [1]; SAR study (Fig. 3)): partial degradation
Compound: CCN(c1cc(-c2ccc(CN3CCN(CCC(=O)NCCCCCCCCC(=O)N[C@H](C(=O)N4C[C@H](O)C[C@H]4C(=O)NCc4ccc(-c5scnc5C)cc4)C(C)(C)C)CC3)cc2)cc(C(=O)NCc2c(C)cc(C)[nH]c2=O)c1C)C1CCOCC1 [Compound 6, (2S,4R)-1-((S)-2-(9-(3-(4-((3’-(((4,6-dimethyl-2-oxo-1,2-dihydropyridin-3-yl)methyl)carbamoyl)-5’-(ethyl(tetrahydro-2H-pyran-4-yl)amino)-4′-methyl-[1,1′-biphenyl]-4-yl)methyl)piperazin-1-yl)propanamido)nonanamido)-3,3-dimethylbutanoyl)-4-hydroxy-N-(4-(4-methylthiazol-5-yl)benzyl)pyrrolidine-2-carboxamide]

- EZH2 degradation (EZH2 protein level) (EZH2 [1]; 1 μM (Fig. 3)): less profoundly
Compound: CCN(c1cc(-c2ccc(CN3CCN(CCC(=O)NCCCCCCCCCC(=O)N[C@H](C(=O)N4C[C@H](O)C[C@H]4C(=O)NCc4ccc(-c5scnc5C)cc4)C(C)(C)C)CC3)cc2)cc(C(=O)NCc2c(C)cc(C)[nH]c2=O)c1C)C1CCOCC1 [Compound 7, (2S,4R)-1-((S)-2-(10-(3-(4-((3’-(((4,6-dimethyl-2-oxo-1,2-dihydropyridin-3-yl)methyl)carbamoyl)-5’-(ethyl(tetrahydro-2H-pyran-4-yl)amino)-4′-methyl-[1,1′-biphenyl]-4-yl)methyl)piperazin-1-yl)propanamido)decanamido)-3,3-dimethylbutanoyl)-4-hydroxy-N-(4-(4-methylthiazol-5-yl)benzyl)pyrrolidine-2-carboxamide]
- EZH2 degradation (EZH2 protein level) (EZH2 [1]; 0.1 μM (Fig. 3)): reduced the EZH2 protein level completely

Compound: CCN(c1cc(-c2ccc(CN3CCOCC3)cc2)cc(C(=O)NCc2c(C)cc(C)[nH]c2=O)c1C)C1CCOCC1 [EPZ-6438, Tazemetostat]
- effect on cell growth (MDA-MB-468 cells): no effect
- effect on cell growth (BT549 cells): no effect

- time at which EZH2 degradation started (EZH2 [1]; 300 nM): 8 h
- time to maximum EZH2 degradation (EZH2 [1]; 300 nM): ≤ 24 h
- EZH2 degradation (EZH2 [1]; 24 h, 0.1 and 0.3 μM, comparison of five degraders (Fig. 7A)): complete degradation
- EZH2 degradation (EZH2 [1]; 24 h treatment at the indicated concentration (Fig. 4A, Fig. 6A)): effectively induced EZH2 degradation
- EZH2 degradation (EZH2 protein level) (EZH2 [1]; 0.1 μM (Fig. 3)): complete EZH2 degradation
- EZH2 degradation (EZH2 protein level) (EZH2 [1]; 1 μM (Fig. 3)): complete EZH2 degradation
- EZH1 degradation (EZH1 [2]): does not degrade
- fold more potent than U3i (cell growth IC50) (MV4; 11 cells): over 2 fold
- EZH2 degradation (EZH2 [4]): potent EZH2 degradation
- EZH2 degradation (EZH2 [5]): potent EZH2 degradation
- inhibition of the enzymatic activity of EZH2 (EZH2 [6]): inhibits
- inhibition of any of the 20 methyltransferases [7]: ≤ 50%
- EZH2 degradation (EZH2 [8]): near-complete degradation
- EZH2 degradation (EZH2 [9]): induced EZH2 degradation
- time at which Cmax was observed ([10]; male Swiss albino mice, single IP injection 50 mg/kg, HCl form): 4 h
- concentration at 9 h ([10]; male, Swiss Albino, mouse, plasma, ip, 50 mg/kg): > 1000 nM
- inhibition of the enzymatic activity of EZH1 (EZH1 [11]): inhibits
Compound: CCN(c1cc(-c2ccc(CN3CCN(CCC(=O)NCCCCCCCCCCC(=O)N[C@H](C(=O)N4C[C@H](O)C[C@H]4C(=O)NCc4ccc(-c5scnc5C)cc4)C(C)(C)C)CC3)cc2)cc(C(=O)NCc2c(C)cc(C)[nH]c2=O)c1C)C1CCOCC1 [MS8847, (2S,4R)-1-((S)-2-(11-(3-(4-((3’-(((4,6-dimethyl-2-oxo-1,2-dihydropyridin-3-yl)methyl)carbamoyl)-5’-(ethyl(tetrahydro-2H-pyran-4-yl)amino)-4′-methyl-[1,1′-biphenyl]-4-yl)methyl)piperazin-1-yl)propanamido)undecanamido)-3,3-dimethylbutanoyl)-4-hydroxy-N-(4-(4-methylthiazol-5-yl)benzyl)pyrrolidine-2-carboxamide]
- cell growth inhibition (K562 cells): did not inhibit cell growth
- clinical signs of toxicity [3]: did not exhibit obvious clinical signs of toxicity
- EED degradation (EED): potently degraded
- cell viability of BT549 cells in spheroids (Cell Titer Glo 3D) (BT549 in vitro spheroids): significantly reduced
- size of BT549 in vitro spheroids (BT549 in vitro spheroids; compared to DMSO-treated control tumors): significantly reduced
- reduction of the H3K27me3 mark (H3K27me3): reduced the H3K27me3 mark
- fold more potent than MS8815 (anti-proliferative IC50) (EOL-1 cells): more than 3 fold

- EZH2 degradation (EZH2 [8]): did not induce EZH2 degradation
Compound: CCN(c1cc(-c2ccc(CN3CCN(CCC(=O)NCCCCCCCCCCC(=O)N[C@H](C(=O)N4C[C@H](O)C[C@H]4C(=O)NCc4ccc(-c5scnc5C)cc4)C(C)(C)C)CC3)cc2)cc(C(=O)N(C)Cc2c(C)cc(C)n(C)c2=O)c1C)C1CCOCC1 [MS8847N1, (2S,4R)-1-((S)-2-(11-(3-(4-((3’-(ethyl(tetrahydro-2H-pyran-4-yl)amino)-4′-methyl-5’-(methyl((1,4,6-trimethyl-2-oxo-1,2-dihydropyridin-3-yl)methyl)carbamoyl)-[1,1′-biphenyl]-4-yl)methyl)piperazin-1-yl)propanamido)undecanamido)-3,3-dimethylbutanoyl)-4-hydroxy-N-(4-(4-methylthiazol-5-yl)benzyl)pyrrolidine-2-carboxamide]

Compound: (2R,4S)-1-((S)-2-(11-(3-(4-((3’-(((4,6-dimethyl-2-oxo-1,2-dihydropyridin-3-yl)methyl)carbamoyl)-5’-(ethyl(tetrahydro-2H-pyran-4-yl)amino)-4′-methyl-[1,1′-biphenyl]-4-yl)methyl)piperazin-1-yl)propanamido)undecanamido)-3,3-dimethylbutanoyl)-4-hydroxy-N-(4-(4-methylthiazol-5-yl)benzyl)pyrrolidine-2-carboxamide [MS8847N2]
- EZH2 degradation (EZH2 [8]): did not induce EZH2 degradation
